According to PMC8305076, “Comprehensive Evaluation of Biological Effects of Pentathiepins on Various Human Cancer Cell Lines and Insights into Their Mode of Action” (International Journal of Molecular Sciences, 2021):

Key:
GR/CAT = GR/CAT inhibition (summary of off-target assays); type: biochemical; design: key: no impact (0); weak impact (+); strong impact (++); details: summary grade
Protocol: To assess the specificity of inhibitors toward the GPx1, we performed enzymatic assays with other relevant antioxidant enzymes. These included the glutathione reductase (GR; yeast-derived), which is an auxiliary component of the GPx1 assay, and catalase (CAT; bovine), a key redox enzyme that fulfils a similar enzymatic task as the GPx1 by detoxifying hydrogen peroxide. None of the pentathiepins altered the activity of either enzyme at a concentration of 25 µM (Figure 5b,c).
Off-target assays were conducted to assess the specificity of the pentathiepins for inhibiting the GPx1; these were the activities of GR and CAT (from bovine liver) that have previously been described. As the baker’s yeast GR is an important component in the GPx assay, its inhibition by pentathiepins had to be excluded. A fixed pentathiepin concentration of 25 µM was tested in triplicate, following the same principle as mentioned before, by monitoring the consumption of NADPH by the GR at λ = 340 nm while GSSG is reduced back to GSH. All assay components were prepared in potassium phosphate buffer (50 mM, pH 7.4, 1.1 mM EDTA, 0.01% Triton-X solution), except for the inhibitor that was diluted in DMF. Subsequently, 180 µL of buffer was added per well followed by 30 µL of a 2.0 U/mL GR solution, 30 µL of a 2.0 mM NADPH solution, and 30 µL of a 250 µM pentathiepin solution or 30 µL of DMF as negative control. Finally, to start the reaction, 30 µL of a 2.5 mM GSSG solution was added, resulting in final concentrations of 0.2 U/mL of GR, 0.2 mM of NADPH, 25 µM of pentathiepin, and 0.25 mM of GSSG. After measuring the decrease of NADPH every 15 s for 30 min at room temperature, the relative inhibition of the GR was calculated by relating the activity of the pentathiepin-treated samples to the negative control.
The CAT activity assay is based on the principle that in the presence of H2O2 and heat, and dichromate in acetic acid is reduced to chromic acetate via perchromic acid as unstable intermediate. Here, the amount of chromic acetate is measured twice, once directly after adding H2O2 (t0min) and once again after the CAT (bovine origin) split the H2O2 for a period of 10 min (t10min) in the presence or absence of a putative inhibitor. Samples in this assay included a blank (+CAT/+DMF/−H2O2), a H2O2 standard (−CAT/+DMF/+H2O2), a negative control (+CAT/+DMF/+H2O2), and the test conditions (+CAT/+25 µM pentathiepin/+H2O2). For each condition, 3.0 mL of 0.002 mg/mL CAT in potassium phosphate buffer (50 mM, pH 7.4, EDTA 1.1 mM, Triton-X 0.01%) were prepared in a glass tube. Additionally, two tubes were prepared per condition each containing 2 mL of a reagent containing 1 part of an aqueous solution of K2Cr2O7 (5%) and 2 parts glacial acetic acid. Subsequently, the solvent or inhibitors were added, and the tubes placed on a shaker for 5 min. To start the reaction, 61.8 µL of a 30% H2O2 solution was added and then mixed, and immediately 1 mL was transferred to one tube containing the K2Cr2O7/acetic acid solution (t0min). The remaining 2 mL was incubated on a shaker for 10 min, and then the previous step was repeated (t10min). Finally, all tubes were boiled in a water bath and cooled down to room temperature, and then absorbance was measured at λ = 570 nm and the instrument was blanked with the blank solution. The difference in absorbance between t0min and t10min was calculated, and all samples were related to the negative control.

[1] = tested on: HAP-1, HAP-1.KO.GPx1, A2780 and Siso; assay: adapted MTT assay with ferrostatin-1 (ferroptosis); type: cell-based, human; design: key: no impact (0); weak impact (+); strong impact (++); details: summary grade
Protocol: Not only apoptosis may contribute to the mainly ROS-based cytotoxicity of the pentathiepins but also ferroptosis, which derives from iron-dependent oxidative damage of the cell membrane. This form of programmed cell death is initiated via lipid peroxidation, which is normally held in check by the membrane-bound GPx4, an isoform of GPx1. As pentathiepins are potent GPx1 inhibitors, we indirectly investigated the possible role of GPx4 inhibition by precluding ferroptosis. Here, cells were incubated with a serial dilution of the respective pentathiepin, and either ferrostatin-1 (Fer-1) or vehicle control (DMSO) was added; Fer-1 is an established inhibitor of ferroptosis. The cell viability was measured after 48 h, and the activity of the compounds after adding or omitting Fer-1 was compared (Figure S50).
This experiment was performed similarly to that described in the previous section. To assess the importance of ferroptosis for cell death, a co-incubation of the cells with a serial dilution of the pentathiepins and ferrostatin-1 (Fer-1) as a known inhibitor of ferroptosis was performed. As negative control, the cells were incubated with the serial dilution of the test compounds and an amount of DMSO corresponding to the Fer-1 treatment solution. If ferroptosis were to be involved in the cytotoxicity of the compounds, the addition of Fer-1 should protect cells from the treatment with pentathiepin. […] The IC50 values were calculated as described above, and Fer-1-treated cells were set in relation to those without the additive.
Figure S50: Relative IC 50 in the four human cancer cell lines HAP -1, HAP -1.KO.GPx1, A2780 and Siso after treatment with pentathiepins 1-6 with either vehicle control (DMSO) or 1.5 or 6.0 µM ferrostatin -1 (Fer -1), respectively, for 48 h. The IC 50 of Fer-1-treated cells were relat ed to DMSO-treated samples (set to 1, dashed line) […]
(1 picture or pasted object on this page, not shown here)

`CCOc1c2c(c3ccc(C(=O)N(CC)CC)cn13)SSSSS2` [Compound 4, 6-Ethoxy-N,N’-diethyl-[1,2,3,4,5]pentathiepino[6,7-a]indolizine-9-carboxamide] showed a GR/CAT inhibition (GR/CAT) of 0 and a Ferroptosis [1] of 0.
Work on `CCOc1c2c(c3ccc(C(=O)N4CCN(S(=O)(=O)c5ccc(C)cc5)CC4)cn13)SSSSS2` [Compound 6, (6-Ethoxy-[1,2,3,4,5]pentathiepino[6,7-a]indolizin-9-yl)(4-tosylpiperazinyl)methanone] yielded a GR/CAT inhibition (GR/CAT) of 0 and a Ferroptosis [1] of 0.
In the case of `CCOc1c2c(c3ccc(C(=O)N4CCCCC4)cn13)SSSSS2` [Compound 2, (6-Ethoxy-[1,2,3,4,5]pentathiepino[6,7-a]indolizin-9-yl)(piperidinyl)methanone], the GR/CAT inhibition (GR/CAT) was 0 and the Ferroptosis [1] was 0.
`CCOc1c2c(c3ccc(C(=O)N4CCN(C(=O)c5ccc(F)cc5)CC4)cn13)SSSSS2` [Compound 5, (6-Ethoxy-[1,2,3,4,5]pentathiepino[6,7-a]indolizin-9-yl)(4-(4-fluorobenzoyl)piperazinyl)methanone] gave a GR/CAT inhibition (GR/CAT) of 0 and a Ferroptosis [1] of 0.
`CCOc1c2c(c3ccc(C(=O)N4CCOCC4)cn13)SSSSS2` [Compound 3, (6-Ethoxy-[1,2,3,4,5]pentathiepino[6,7-a]indolizin-9-yl)(morpholino)methanone] showed a GR/CAT inhibition (GR/CAT) of 0 and a Ferroptosis [1] of 0.
`CCOc1c2c(c3cnc4[nH]c(-c5ccc(OC)cc5)cc4n13)SSSSS2` [Compound 1, 11-Ethoxy-2-(4-methoxyphenyl)-3H-[1,2,3,4,5]pentathiepino[6′,7′:3,4]pyrrolo[1,2-a]pyrrolo[2,3-e]pyrazine] showed a GR/CAT inhibition (GR/CAT) of 0 and a Ferroptosis [1] of 0.
